Results: US20230067159A1, “ROR-GAMMA-T INHIBITOR, PREPARATION METHOD THEREOF AND USE THEREOF” (priority 2020, published 2023)
pIC50: −log10 of the molar value.

Columns and labels:
RORγ = target: T1, RORγ (Homo sapiens, UniProt P51449); assay: Fluorescence resonance energy transfer (FRET) test, B-RORγ LBD / Biotin-SRC1; assay type: biochemical
T1 construct: The concentration of B-RORγ LBD was 40 nM
T1 sequence (P51449 269-508 limits assumed): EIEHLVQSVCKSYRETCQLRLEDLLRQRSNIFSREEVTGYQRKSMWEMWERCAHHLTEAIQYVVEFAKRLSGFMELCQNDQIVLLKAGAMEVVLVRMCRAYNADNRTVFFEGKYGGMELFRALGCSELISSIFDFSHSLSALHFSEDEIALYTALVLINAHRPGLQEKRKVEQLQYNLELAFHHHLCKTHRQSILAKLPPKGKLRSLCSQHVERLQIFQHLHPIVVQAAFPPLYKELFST
Description: Biological Example 1 Fluorescence Resonance Energy Transfer (FRET) Test
(1) Preparation of RORγ Test Buffer and 10 mM of DTT
100 mL of 1× Basic test buffer (HEPES (pH 7.4), 100 mM NaCl, 0.01% BSA) was prepared, and 154.25 mg of DTT was added. The mixture was well mixed.
(2) Preparation of Compound with Gradient Concentration
a. Standard compound was prepared: Standard compound was diluted with 100% DMSO to 2.5 mM, then diluted 3-fold with 11 serial dilutions to a final concentration of […];
b. Test compound was prepared referring to the standard compound.
(3) Preparation of 1× Protein Solution Mixture
(§1) a. Preparation of the desired amount of 2× B-RORγ LBD/SA-APC protein mixture: The concentration of B-RORγ LBD was 40 nM, and the concentration of SA-APC was 20 nM. They were mixed by gently inversion, and incubated at room temperature for 15 minutes. Then 400 nM of biotin was added. The mixture was mixed by gently inversion, and incubated at room temperature for 10 minutes;
as §1, with “b.” for “a.”, “Biotin-SRC1/SA-eu” for “B-RORγ LBD/SA-APC”, “Bioin-SRC1” for “B-RORγ LBD”, “SA-eu” for “SA-APC”, “200” for “400”
c. The protein mixtures prepared in step a and step b were mixed at a ratio of 1:1, and incubated at room temperature for 5 minutes;
d. 25 μL of the mixture from step c was added to the 384-well plate containing the test compound;
e. The mixture was centrifuged at 1000 rpm for one minute;
f. The mixture was incubated for 1 hour at room temperature.
(4) Data Collection and Calculation
After incubation at room temperature for 1 hour, the fluorescence values at 665 nm and 615 nm were measured with an EnVision plate reader, and the inhibition rate was calculated.
Inhibition rate %)=[(X−Min)/(Max−Min)]×100%
X is the fluorescence value ratio of “665/615” of the test compound; Min is the average value of “665/615” of the DMSO blank control; Max is the average value of “665/615” of the 10 μM SRC.

[1] = Pharmacokinetic evaluation I in ICR mice; assay type: in vivo; conditions: mouse, plasma, po; for bioavailability: p.o. 5 mg/kg, i.v. 1 mg/kg, read-out: Oral bioavailability (F); for AUC(0-t) / Cmax / half-life: 5 mg/kg
Description: Biological Example 2 Pharmacokinetic Evaluation I
ICR mice were weighed after an overnight fast for 15 h, and then randomly divided into groups according to body weight. The test compounds were formulated in a vehicle of 10% DMSO 10% kolliphor HS15^+ 80% Saline. For the test group administered intravenously (indicated by i.v.), the test animals were administered a dose of 1 mg/kg; for the test group administered by oral administration (indicated by p.o.), the test animals were administered a dose of 5 mg/kg. Then, at time points 0, 0.083 (intravenous injection group only), 0.25, 0.5, 1.0, 2.0, 5.0, 7.0 and 24 h, venous blood (approximately 0.2 mL) was collected and placed in an EDTAK2 anticoagulation tube, then centrifuged at 11,000 rpm for 2 min. Plasma was collected and stored at −20° C. or −70° C. until LC/MS/MS analysis. The drug concentration in plasma was measured at each time point, and the pharmacokinetic parameters were calculated according to the drug concentration-time curve.

[2] = Stability in human liver microsomes; assay type: in vitro ADME; conditions: pH 7.4; for half-life at 1.5 μM: human liver microsomes 0.5 mg protein/mL, compound 1.5 μM, NADPH, 37° C., read-out: Half-life t1/2; for CLint scaled at 1.5 μM: human liver microsomes, inferred in vivo intrinsic hepatic clearance rate
Description: (§2) Biological Example 4 Stability of the Compounds of the Present Invention in Human and Rat Liver Microsomes
(§3) Human or rat liver microsomes were incubated in double wells in polypropylene tubes. A typical incubation mixture included human or rat liver microsomes (final concentration: 0.5 mg protein/mL), target compound (final concentration: 1.5 μM), and K-phosphate buffered solution (containing […] EDTA, 100 mM, pH=7.4) in a total volume of 30 μL. Compounds were dissolved in DMSO and diluted with K-phosphate buffered solution to give a final working solution concentration of 30 μM. After 10 min of pre-incubation, 25 μL of test compound or positive control solution was transferred to the microsomal solution. The mixture was mixed well and 30 μL of the mixture was immediately pipetted, ice-cold acetonitrile was added, then 15 μL of NADPH was added as T0. 15 μL of NADPH (final concentration: 2 mM) was added to 30 μL of the mixture for the enzymatic reaction, and the entire experiment was carried out in an incubation tube at 37° C. At various time points (0, 20 and 60 min), the reaction was stopped by adding 150 μL of acetonitrile (with internal standard). The protein was removed by centrifugation at 4000 rpm for 10 min, and the supernatant was collected and analyzed by LC-MS/MS.
(§4) For each reaction, the concentration of compound in the incubation of human or rat liver microsomes was plotted (expressed as a percentage) as a percentage relative to the zero time point to infer in vitro metabolic half-life and in vivo intrinsic hepatic clearance rate.

[3] = Stability in rat liver microsomes; assay type: in vitro ADME; conditions: pH 7.4; for half-life at 1.5 μM: rat liver microsomes 0.5 mg protein/mL, compound 1.5 μM, NADPH, 37° C., read-out: Half-life t1/2; for CLint scaled at 1.5 μM: rat liver microsomes, inferred in vivo intrinsic hepatic clearance rate
Description: as §2, §3, §4

Row | SMILES | pIC50 (RORγ) | bioavailability [1] [%] | AUC(0-t) [1] [µM·h] | Cmax [1] [µM] | half-life [1] [h] | half-life at 1.5 μM [2] [h] | CLint scaled at 1.5 μM [2] [L/h/kg] | half-life at 1.5 μM [3] [h] | CLint scaled at 1.5 μM [3] [L/h/kg]
1 | CCS(=O)(=O)c1ccc([C@H](CO)NC(=O)c2ccc(N3C[C@@H](Oc4ccc(C(F)(F)F)cc4)C[C@H]3COC(F)F)cc2)cc1 [Example 39] | 8.52 | 35 | 11.4 | 1.5 | 3.9 | 3.53 | 0.492 | 5.62 | 0.444
2 | CCS(=O)(=O)c1ccc([C@H](CO)NC(=O)c2ccc(N3C[C@@H](Oc4ccc(C(F)(F)F)cc4)C[C@H]3COC(F)(F)F)cc2)cc1 [Example 48, N—((R)-1-(4-(ethylsulfonyl)phenyl)-2-hydroxyethyl)-4-((2S,4S)-2-((trifluoromethoxy)methyl)-4-(4-(trifluoromethyl)phenoxy)pyrrolidin-1-yl)benzamide] | 8.19 | 50 | 20.9 | 1.7 | 11.4 | 10 | 0.174 | – | –
3 | CCS(=O)(=O)c1ccc([C@H](CCO)NC(=O)c2ccc(N3C[C@@H](Oc4ccc(C(F)(F)F)cc4)C[C@H]3COC(F)F)cc2)cc1 [Example 91] | – | 42 | 21 | 1.9 | 7.6 | 6.93 | 0.252 | 2.37 | 2.28
4 | CCS(=O)(=O)c1ccc([C@H](CCO)NC(=O)c2ccc(N3C[C@@H](Oc4ccc(OC(F)(F)F)cn4)C[C@H]3COC(F)F)cc2)cc1 [Example 108] | 8.22 | – | – | – | – | – | – | – | –
5 | [2H]C([2H])([2H])OC[C@@H]1C[C@H](Oc2ccc(C(F)(F)F)cc2)CN1c1ccc(C(=O)NCc2ccc(S(=O)(=O)CC)cc2)cc1 [Example 109, N-(4-(ethylsulfonyl)benzyl)-4-((2S,4S)-2-(3,3,3-d3-methoxymethyl)-4-(4-(trifluoromethyl)phenoxy)pyrrolidin-1-yl)benzamide] | 8.19 | – | – | – | – | – | – | – | –
6 | CCS(=O)(=O)c1ccc(CNC(=O)c2ccc(N3C[C@@H](Oc4ccc(OC(F)(F)F)cn4)C[C@H]3COC(F)F)nc2)cc1 [Example 110] | 7.96 | – | – | – | – | – | – | – | –
7 | CCS(=O)(=O)c1ccc(CNC(=O)c2cnc(N3C[C@@H](Oc4ccc(OC(F)(F)F)cn4)C[C@H]3COC(F)F)c(F)c2)cc1 [Example 111] | 8.30 | – | – | – | – | – | – | – | –
8 | CCS(=O)(=O)c1ccc(CNC(=O)c2ccc(N3C[C@@H](Oc4ccc(OC(F)(F)F)cn4)C[C@H]3COC(F)F)cc2)nc1 [Example 112] | 8.10 | – | – | – | – | – | – | – | –
9 | CCS(=O)(=O)c1ccc(CNC(=O)c2cnc(N3C[C@@H](Oc4ccc(Cl)cn4)C[C@H]3COC(F)F)c(F)c2)nc1 [Example 113, 6-((2S,4S)-4-((5-chloropyridin-2-yl)oxy)-2-((difluoromethoxy)methyl)pyrrolidin-1-yl)-N-((5-(ethylsulfonyl)pyridin-2-yl)methyl)-5-fluoronicotinamide] | 8.21 | – | – | – | – | – | – | – | –
10 | CCS(=O)(=O)c1ccc([C@H](CCO)NC(=O)c2ccc(N3C[C@H](Oc4ccc(OC(F)(F)F)cc4)C[C@H]3COC(F)F)nc2)cc1 [Example 115] | 7.89 | – | – | – | – | – | – | – | –
11 | CCS(=O)(=O)c1ccc([C@H](CCO)NC(=O)c2cnc(N3C[C@@H](Oc4ccc(OC(F)(F)F)cc4)C[C@H]3COC(F)F)c(F)c2)cc1 [Example 116] | 8.00 | – | – | – | – | – | – | – | –
12 | CCS(=O)(=O)c1ccc([C@H](CCO)NC(=O)c2ccc(N3C[C@@H](Oc4ccc(OC(F)(F)F)cc4)C[C@H]3CF)cc2)cc1 [Example 117, N—((S)-1-(4-(ethylsulfonyl)phenyl)-3-hydroxypropyl)-4-((2S,4S)-2-(fluoromethyl)-4-(4-(trifluoromethoxy)phenoxy)pyrrolidin-1-yl)benzamide] | 7.85 | – | – | – | – | – | – | 6.12 | 0.228
13 | CCS(=O)(=O)c1ccc([C@H](CCO)NC(=O)c2ccc(N3C[C@@H](Oc4ccc(OC(F)(F)F)cc4)C[C@H]3COC(F)F)cc2)cc1 [Example 119, 4-((2S,4S)-2-((difluoromethoxy)methyl)-4-(4-(trifluoromethoxy)phenoxy)pyrrolidin-1-yl)-N—((S)-1-(4-(ethylsulfonyl)phenyl)-3-hydroxypropyl)benzamide] | 8.04 | 71 | 28.5 | 2.38 | 6.5 | 5.25 | 0.264 | 7.17 | 0.192
14 | CCS(=O)(=O)c1ccc([C@H](CCOP(=O)(O)O)NC(=O)c2ccc(N3C[C@@H](Oc4ccc(OC(F)(F)F)cc4)C[C@H]3COC(F)F)cc2)cc1 [Example 125, sodium (S)-3-(4-((2S,4S)-2-((difluoromethoxy)methyl)-4-(4-(trifluoromethoxy)phenoxy)pyrrolidin-1-yl)benzamino)-3-(4-(ethylsulfonyl)phenyl)propyl phosphate] | 6.85 | – | – | – | – | – | – | – | –
